Laboratory results reported in article PMC9616048, “Thermal proteome profiling reveals Haemonchus orphan protein HCO_011565 as a target of the nematocidal small molecule UMW-868” (Frontiers in Pharmacology, 2022).
Read-outs that look alike come from different tables or passages of the source.

Tests used:
H. contortus xL3s [1] = test: Cell lethality in xL3s (Sytox Green staining); assay type: cell-based, Haemonchus contortus
Description: Fluorescence staining was employed to assess the ability of UMW-868 to reduce the viability of H. contortus. The xL3s were dispensed in 96-well plates at a density of 300 xL3 per well, and incubated with compounds UMW-868 or A-3155, non-active analogs of UMW-868, at 50 μM at 38°C, 10% (v/v) CO2 and >90% relative humidity. After 90 h of incubation, H. contortus xL3s were stained with Sytox Green nucleic acid stain (Thermo Fisher Scientific) at the final concentration of 1 µM in LB* in the same 96-well plates and incubated for 1 h at 38°C and 10% (v/v) CO2 with >90% relative humidity. Following the incubation, the viability of larvae was evaluated by measuring the relative fluorescent units (RFU) of xL3s using an Omega FLUOstar microplate reader (BMG Labtech), with excitation and emission wavelengths set at 485 nm and 520 nm, respectively. The 96-well plates containing the stained larvae were returned to the incubator for further 78 h; after a total of 168 h of compound exposure, the stained larvae were examined under an inverted fluorescence microscope (DM IL, Leica) equipped with a green fluorescent protein filter (470/500/525 […]; Leica), and imaged using Leica Application Suite software (Leica).

[2] = system: H. contortus fourth-stage larvae (L4s) development; test: Dose-response evaluation, L4 development; assay type: cell-based, Haemonchus contortus; conditions: for IC50: Haemonchus contortus, 168 h
Description: (§1) These evaluations were carried out to estimate the half-maximal inhibitory concentrations (IC50 values) for hit compounds against H. contortus xL3s. With reference to the two positive-control compounds (monepantel and moxidectin), IC50 values for compounds were estimated ([Preston et al., 2015]; [Taki et al., 2021a]) using two-fold serial dilution (in LB*; 9 points from 50 μM to 0.2 µM) in 96-well plates (cat. no. 3596; Corning) with larvae at a density of 300 H. contortus xL3s in 100 µl per well. Plates containing H. contortus xL3s were incubated at 38°C, 10% (v/v) CO2 and >90% relative humidity.
(§2) The motility of H. contortus xL3s and L4 development were measured following 168 h of incubation with compound ([Taki et al., 2021a]). Compound concentrations were log10-transformed and fitted using a variable slope four-parameter equation, constraining the highest value to 100% employing a least squares (ordinary) fit model using GraphPad Prism software (v.9.1.2). Compounds were tested by three independent experiments in triplicate. A one-way analysis of variance (ANOVA) with a Tukey’s multiple comparison test or an unpaired t-test was used to establish statistically significant differences in larval motility or development.

H. contortus xL3s [3] = test: Dose-response evaluation, xL3 motility; assay type: cell-based; conditions: Haemonchus contortus
Description: as §1
as §2, with “Compound” for “The motility of H. contortus xL3s and L4 development were measured following 168 h of incubation with compound ([Taki et al., 2021a]). Compound”

[4] = system: A. ceylanicum in hamsters; test: In vivo activity against A. ceylanicum in hamsters; set-up: species or system Ancylostoma ceylanicum
Description: Candidate compound(s) were tested for their effect on other nematode species (He. polygyrus and A. ceylanicum) in infected rodents.
For He. polygyrus, four NMRI mice (3 weeks old; female) were infected orally with 88 He. polygyrus L3s, and immunosuppressed with 0.25 mg/ml dexamethasone (Sigma-Aldrich), in the drinking water, until 2 days prior to treatment ([Mes et al., 2007]). For A. ceylanicum, four Syrian golden hamsters (3 weeks old; male) were infected orally with 300 L3s without immunosuppression ([Tritten et al., 2012]). Fourteen days or 23 days after the infection, mice and hamsters, respectively, were treated orally with UMW-868 at dosages of 100 mg/kg bw (mice and hamsters). Four each of untreated mice and hamsters served as placebo controls. Six to 7 days post-treatment with the compound, all animals were euthanised by CO2 (hamsters being initially narcotised using isoflurane), and the intestine was dissected. The live adult worms were collected and counted to calculate the worm burden reductions and worm expulsion rates. The worm burden reduction was calculated using the mean number of live worms for the treated group and establishing the differences, in a percentage, with reference to the untreated control group.

eggs of H. contortus = test: Egg hatch assay; assay type: cell-based; conditions: Haemonchus contortus, 48 h; read-out: Egg hatch inhibition (IC50 in µM)
Description: Compounds were also assessed for their effect on the hatching of eggs of H. contortus in vitro. To do this, eggs were isolated from the faeces from sheep with patent (30 day-) H. contortus infection by sucrose flotation ([Mes et al., 2007]). Eggs were suspended in H2O at a concentration of one egg per µl. The eggs were dispensed into wells (in triplicate; 100 eggs per well) and incubated with two-fold serial dilutions (9 points from 50 μM to 0.2 µM in H2O) of individual test or control compounds for 48 h at 27°C and >90% relative humidity; wells with no compound were also included. The numbers (percentages) of eggs from which first-stage larvae (L1s) hatched were counted using a light microscope (M80, Leica) at a 40-times magnification. With reference to positive-control compounds (i.e., monepantel and moxidectin), IC50 values of compounds were calculated.

[5] = hamster, A. ceylanicum, 100 mg/kg single oral dose

With `CCCc1ccc(-c2nc(-c3cccs3)no2)cc1` [UMW-868, 5-(4-propylphenyl)-3-(2-thienyl)-1,2,4-oxadiazole] as the compound, how does the “percentage of treated xL3s killed” value (H. contortus xL3s [1]; 50 μM, 90 h) read?
Its value is 100%.

And the “concentration at which cell death was detected in xL3s” value (H. contortus xL3s [1]; 90 h of exposure)?
Its value is over 5 µM.

And the “dead cells detected microscopically in xL3s (Sytox Green)” value (H. contortus xL3s [1]; 168 h of exposure)?
Its value is “dead cells could be seen throughout the larvae”.

What about the IC50 (H. contortus xL3s [1]; Haemonchus contortus, 90 h, read-out: IC50 (lethality, inducing cell death in xL3s)) of the same compound?
The IC50 was 34.8 µM.

And the IC50 ([2]; analog series, read-out: L4 development inhibition (IC50 in µM))?
The IC50 was 50 µM.

What about the IC50 ([2]; larval development inhibition, hit evaluation, read-out: IC50 (development)) of the same compound?
Its IC50 is 5.8 µM.

And the “abnormal phenotypes in affected xL3s” value ([2]; dose-response evaluation)?
Its value is “curved or evisceration”.

What about the IC50 (H. contortus xL3s [3]; 90 h, xL3s, 90 h, read-out: IC50 (motility)) of the same compound?
Its IC50 is 5.6 µM.

What about the IC50 (H. contortus xL3s [3]; 168 h, analog series, read-out: xL3 motility reduction (IC50 in µM)) of the same compound?
Its IC50 is 13.8 µM.

What about the “Mean no. of worms (SD)” value [4, 5] of the same compound?
Its value is 4.8 (1.0).

And the “Reduction in infection intensity (%)” value [4, 5]?
Its value is 48%.

And the “acute toxicity and pathological changes in treated animals” value ([4]; hamsters, single oral dose, post-mortem examination)?
Its value is “neither evidence of acute toxicity”.

And the IC50 (eggs of H. contortus)?
Its IC50 is 6.2 µM.
